According to BindingDB's records for doi:10.1021/acsmedchemlett.0c00405 (University of Oxford, 2020):

Assay: Modulation of human utrophinA expressed in mouse H2K-mdx utrnA-luc cells assessed as upregulation of utrophin production after 24 hrs by luciferase reporter gene assay

Compound | EC50
CCP(=O)(OC)c1ccc2oc(-c3ccccc3C(F)F)nc2c1 (stereo not given) | 1260 nM
CCP(=O)(OC)c1ccc2oc(-c3cccc(C(F)F)c3)nc2c1 (stereo not given) | 890 nM
CCP(=O)(OC)c1ccc2oc(-c3ccc(F)cc3C(F)F)nc2c1 (stereo not given) | 580 nM
CCP(=O)(OC)c1ccc2oc(-c3cccc(OC)c3)nc2c1 (stereo not given) | 157 nM
CCP(=O)(OC)c1ccc2oc(-c3ccc4c(c3)OC(F)(F)O4)nc2c1 (stereo not given) | 530 nM
CCP(=O)(OC)c1ccc2oc(-c3ccnc(OC(F)F)c3)nc2c1 (stereo not given) | 309 nM
CCP(=O)(OC)c1ccc2oc(-c3cncc(C(F)(F)F)c3)nc2c1 (stereo not given) | 4170 nM
CCP(=O)(OC)c1ccc2oc(-c3cncc(C(F)F)c3)nc2c1 (stereo not given) | 5900 nM
CCP(=O)(OC)c1ccc2nc(-c3cncc(C(F)(F)F)c3)oc2c1 (stereo not given) | > 50000 nM
CCP(=O)(OC)c1ccc2oc(-c3ccc(OC)cc3)nc2c1 (stereo not given) | 510 nM
CCP(=O)(OC)c1ccc2oc(-c3cccc(OC(F)F)c3)nc2c1 (stereo not given) | 677 nM
CCP(=O)(OC)c1ccc2nc(-c3ccccc3C(F)F)oc2c1 (stereo not given) | 500 nM
CCP(=O)(OC)c1ccc2nc(-c3ccc(C(F)F)cc3)oc2c1 (stereo not given) | 1900 nM
CCP(=O)(OC)c1ccc2nc(-c3cccc(OC(F)F)c3)oc2c1 (stereo not given) | > 50000 nM
CCP(=O)(OC)c1ccc2oc(-c3ccc(C(F)F)cc3)nc2c1 (stereo not given) | 750 nM
